Data from patent US20110251135A1, “INHIBITORS OF PERITONEAL SEEDING OF CANCER CELLS” (University of Utah Research Foundation, priority 2008, published 2011).
Entries after “also recorded” stand apart in the source; their conditions may differ.

Columns and labels:
[1] = test system: DLD-1, HCT-116, HT-29 colon cancer cell lines; assay: Cell proliferation assay (crystal violet, 96-well); assay type: cell-based, human; details: 10 μM, cultured up to 8 days
Description: The data points represent the means of triplicate experiments and the error bars the standard errors of the means. […] The percent of apoptotic cells was then determined by the annexin V assay. […] The results shown are typical of two separate experiments. […] Immunoblots were performed for c-IAP-2, TRAF-1, TRAF-2, and FLIP. All lanes contain equal total protein.
For the cell proliferation assay, cells were dispersed and plated at 40,000 cells/well in 96-well dishes. At various days in culture, the cells were gently washed twice with 100 μL/well of ice-cold blocking buffer (1% radioimmunoassay grade BSA in PBS) and twice with 100 μL/well of ice-cold PBS. The cells were fixed for 10 min in 100% ice-cold methanol (100 μL/well), then allowed to air-dry. The cells were stained with 100 μL/well of 0.1% crystal violet in H20 for 10 minutes, then washed gently four times with dd H20 and four times with PBS. The plates were then air-dried completely. The stained cells were then solubilized in 1% sodium deoxycholate, and the plates read at 590 nm in a spectrophotometer. The absorption at 590 nm is proportional to the number of attached cells.

[2] = test system: JNK; assay: JNK activity (phosphorylation of c-JUN) in colon and pancreatic cancer cell lines; assay type: cell-based, human
[3] = test system: NF-κB; assay: NF-κB binding activity assay (TRANS-AM) in HT-29 cells; assay type: cell-based, human
Description: The transiently suspended cells were lysed and allowed to bind to DNA oligonucleotides, containing the NF-κB consensus binding site, that were immobilized to 96-well plates. NF-κB protein bound to the oligonucleotides was detected by an antibody to the p65 subunit that only recognized p65 that is bound to DNA. The positive control was HeLa cells that were stimulated with TNFα. A control was performed using excess free NF-κB oligonucleotides (Competitor). […] NF-κB binding activity was determined by the TransAM assay as in FIG. 5A. […] The data shown represent typical results of three separate experiments. […] An immunoblot for COX-2 was performed.
Activation of NF-κB was also determined using the TRANS-AM™ assay (Active Motif, Carlsbad, Calif.) per the manufacturer's instructions. (Renard et al., “Development of a sensitive multi-well colorimetric assay for active NF-κB,” Nucleic Acids Res 29, E21, 2001). Briefly, cell monolayers on 60 mm dishes were washed with ice-cold PBS and removed by incubating in trypsin-PBS or scraping. The cells were centrifuged for 10 minutes at 1,000 rpm at 4° C. and resuspended for 10 minutes in 100 μL of 4° C. lysis buffer (20 mM HEPES (pH 7.5), 350 mM NaCl, 20% glycerol, 1% Igepal-CA630, 1 mM MgCl2, 0.5 mM EDTA, 0.1 mM EGTA, 1 μL of 1 M dithiothreitol and 10 μL of protease inhibitor cocktail (proprietary) per mL of lysis buffer). The lysates were centrifuged for 20 minutes at 14,000 g at 4° C. Lysates containing 5 μg of total protein were added to 20 μL of lysis buffer per well in 96-well dishes containing immobilized oligonucleotides corresponding to the NF-κB consensus DNA binding site (SEQ ID NO:2) (5′-[…]-3′). […] 100 μL of stop solution (0.5M H2SO4) was added to each well after which the absorbance was determined on a plate spectrophotometer at 450 nm. Specificity of binding was determined using 200-fold excess wildtype NF-κB oligonucleotides added at the time the cell lysates were added to the wells.
The same NF-κB binding assay was used to determine whether NF-κB inhibitors could diminish the activation of NF-κB by readhesion. […]

[4] = test system: IκB phosphorylation and TNFα-induced NF-κB activation; details: Pierce et al., J Biol Chem 272:21096-103, 1997; cited from earlier work

With CC(C)(C)c1ccc(S(=O)(=O)/C=C/C#N)cc1 [BAY 11-7085, (2E)-3-[4-(tertiarybutylphenyl)sulfonyl]-2-propenenitrile] the cell proliferation [1] was “greatly inhibited cell proliferation”, the “JNK activity (phosphorylation of c-JUN)” value [2] was “readily induced JNK activity” and the “constitutive NF-κB activation in adherent cells” value ([3]; adherent cells, increasing concentrations, up to 50 μM, 8 hours) was “relatively unaffected; also recorded: could not be inhibited”. The “NF-κB activation induced by readhesion of transiently suspended colon cancer cells” value ([3]; as little as 10 μM BAY 11-7085) was “almost totally inhibited”, the “NF-κB activation caused by readhesion (TRANS-AM)” value ([3]; transiently suspended HT-29, increasing concentrations, 8 hours) was “dose-related inhibition of this NF-κB activation” and the “IκB phosphorylation and TNFα-induced NF-κB activation” value [4] was “inhibit IκB phosphorylation and TNFα-induced NF-κB activation”.
